# Legend:
# HSPs in RPMI-8226 cells = assay: LC-MRM relative quantification of HSPs after 17-DMAG (Example 2); assay type: cell-based, human; settings: for CDC37 Fold Change, LC-MRM / HS90A Fold Change, LC-MRM / HS90B Fold Change, LC-MRM / HSP7C Fold Change, LC-MRM / HSP7E Fold Change, LC-MRM / HSP71 Fold Change, LC-MRM / HSP74 Fold Change, LC-MRM / HSPA5 Fold Change, LC-MRM / HSP90α Fold Change, LC-MRM: RPMI-8226, 100 nM; for CDC37 Fold Change, LC-MRM / HS90A Fold Change, LC-MRM / HS90B Fold Change, LC-MRM / HSP7C Fold Change, LC-MRM / HSP7E Fold Change, LC-MRM / HSP71 Fold Change, LC-MRM / HSP74 Fold Change, LC-MRM / HSPA5 Fold Change, LC-MRM: 24 hrs after treatment vs. control; for HSP90α Fold Change, LC-MRM: 24 hrs vs. control
# Protocol: (§1) Cell Culture, Lysis, and HSP Sample Preparation for Mass Spectrometry. RPMI-8226 and 8226/LR5 cells were maintained as previously described (Bellamy et al., Cancer Res. 51:995-1002 (1991); Remily-Wood et al., Proteomics Clin. Appl. 5:383-96 (2011)). The heat shock protein 90 inhibitor, 17-desmethoxy-17-N,N-dimethylaminoethylamino-geldanamycin (17-DMAG), was dissolved in DMSO (100 μM stock). Based on prior IC50 measurements, the RPMI-8226 cells were treated with 100 nM 17-DMAG for 24 hours, and 8226/LR5 cells were treated with 50 nM 17-DMAG. Cells (n=10^6) were lysed using in aqueous 100 mM ammonium bicarbonate containing 8M urea for protein denaturation. Protein concentrations were measured by Bradford assays; consistent aliquots of total protein (380 ng) were injected for LC-MRM, and the same solutions were used for DI-MRM. Digestion, addition of SIS peptides, and mass spectrometry sample preparation were performed as described for standard proteins.
# (§2) […] Quantification. For HSP proteins in cell lysate, 184 transitions from 32 peptides (see Table 2) were monitored as previously described (Remily-Wood et al., Proteomics Clin. Appl. 5:383-96 (2011)). Both relative and absolute quantification were calculated from the sum of the peak areas for all detected transitions using Skyline (MacLean et al., Bioinformatics 26:966-8 (2010)) or the combination of MRMer (Martin et al., Mol. Cell Proteomics 7:2270-8 (2008)) and Post-MRMer (http://proteome.moffitt. org).
# HSPs in 8226/LR5 cells = assay: as above; assay type: cell-based, human; settings: for CDC37 Fold Change, LC-MRM / HS90A Fold Change, LC-MRM / HS90B Fold Change, LC-MRM / HSP7C Fold Change, LC-MRM / HSP7E Fold Change, LC-MRM / HSP71 Fold Change, LC-MRM / HSP74 Fold Change, LC-MRM / HSPA5 Fold Change, LC-MRM / HSP90α Fold Change, LC-MRM: 8226/LR5, 50 nM; for CDC37 Fold Change, LC-MRM / HS90A Fold Change, LC-MRM / HS90B Fold Change, LC-MRM / HSP7C Fold Change, LC-MRM / HSP7E Fold Change, LC-MRM / HSP71 Fold Change, LC-MRM / HSP74 Fold Change, LC-MRM / HSPA5 Fold Change, LC-MRM: 24 hrs after treatment vs. control; for HSP90α Fold Change, LC-MRM: 24 hrs vs. control
# Protocol: as §1, §2
# [1] = y3-y5 (DI-MRM Interference-Corrected)
# [2] = y3-y6 (DI-MRM Interference-Corrected)
structure (smiles),measurement,setting,value
"CO[C@H]1/C=C\C=C(/C)C(=O)NC2=CC(=O)C(NCCN(C)C)=C(C[C@@H](C)C[C@H](OC)[C@H](O)[C@@H](C)/C=C(\C)[C@@H]1OC(N)=O)C2=O [17-DMAG, 17-Dimethylaminoethylamino-17-demethoxygeldanamycin]","CDC37 Fold Change, LC-MRM",HSPs in RPMI-8226 cells; Table 6,1.33
same,"HS90A Fold Change, LC-MRM",HSPs in RPMI-8226 cells; Table 6,2.21
same,"HS90B Fold Change, LC-MRM",HSPs in RPMI-8226 cells; Table 6,1.53
same,"HSP7C Fold Change, LC-MRM",HSPs in RPMI-8226 cells; Table 6,2.28
same,"HSP7E Fold Change, LC-MRM",HSPs in RPMI-8226 cells; Table 6,1.23
same,"HSP71 Fold Change, LC-MRM",HSPs in RPMI-8226 cells; Table 6,4.67
same,"HSP74 Fold Change, LC-MRM",HSPs in RPMI-8226 cells; Table 6,1.45
same,"HSPA5 Fold Change, LC-MRM",HSPs in RPMI-8226 cells; Table 6,2.66
same,"CDC37 Fold Change, LC-MRM",HSPs in RPMI-8226 cells; Table 7,1.33
same,"HS90A Fold Change, LC-MRM",HSPs in RPMI-8226 cells; Table 7,2.21
same,"HS90B Fold Change, LC-MRM",HSPs in RPMI-8226 cells; Table 7,1.53
same,"HSP7C Fold Change, LC-MRM",HSPs in RPMI-8226 cells; Table 7,2.28
same,"HSP7E Fold Change, LC-MRM",HSPs in RPMI-8226 cells; Table 7,1.23
same,"HSP71 Fold Change, LC-MRM",HSPs in RPMI-8226 cells; Table 7,4.67
same,"HSP74 Fold Change, LC-MRM",HSPs in RPMI-8226 cells; Table 7,1.45
same,"HSPA5 Fold Change, LC-MRM",HSPs in RPMI-8226 cells; Table 7,2.66
same,"HSP90α Fold Change, LC-MRM",HSPs in RPMI-8226 cells; y3 (Least Interference),2.19
same,"HSP90α Fold Change, LC-MRM",HSPs in RPMI-8226 cells; [1],2.21
same,"HSP90α Fold Change, LC-MRM",HSPs in RPMI-8226 cells; y3-y5 (Selected Transitions),2.21
same,"HSP90α Fold Change, LC-MRM",HSPs in RPMI-8226 cells; [2],2.21
same,"HSP90α expression increase, LC-MRM","HSPs in RPMI-8226 cells; RPMI-8226, 24 hours after treatment, same for y3-y6, y3-y5 or just y3",approximately 2.2 fold
same,"CDC37 Fold Change, LC-MRM",HSPs in 8226/LR5 cells; Table 6,1.08
same,"HS90A Fold Change, LC-MRM",HSPs in 8226/LR5 cells; Table 6,1.23
same,"HS90B Fold Change, LC-MRM",HSPs in 8226/LR5 cells; Table 6,1.28
same,"HSP7C Fold Change, LC-MRM",HSPs in 8226/LR5 cells; Table 6,1.56
same,"HSP7E Fold Change, LC-MRM",HSPs in 8226/LR5 cells; Table 6,0.99
same,"HSP71 Fold Change, LC-MRM",HSPs in 8226/LR5 cells; Table 6,3.54
same,"HSP74 Fold Change, LC-MRM",HSPs in 8226/LR5 cells; Table 6,1.34
same,"HSPA5 Fold Change, LC-MRM",HSPs in 8226/LR5 cells; Table 6,1.53
same,"CDC37 Fold Change, LC-MRM",HSPs in 8226/LR5 cells; Table 7,1.08
same,"HS90A Fold Change, LC-MRM",HSPs in 8226/LR5 cells; Table 7,1.23
same,"HS90B Fold Change, LC-MRM",HSPs in 8226/LR5 cells; Table 7,1.28
same,"HSP7C Fold Change, LC-MRM",HSPs in 8226/LR5 cells; Table 7,1.56
same,"HSP7E Fold Change, LC-MRM",HSPs in 8226/LR5 cells; Table 7,0.99
same,"HSP71 Fold Change, LC-MRM",HSPs in 8226/LR5 cells; Table 7,3.54
same,"HSP74 Fold Change, LC-MRM",HSPs in 8226/LR5 cells; Table 7,1.34
same,"HSPA5 Fold Change, LC-MRM",HSPs in 8226/LR5 cells; Table 7,1.53
same,"HSP90α Fold Change, LC-MRM",HSPs in 8226/LR5 cells; y3 (Least Interference),1.26
same,"HSP90α Fold Change, LC-MRM",HSPs in 8226/LR5 cells; [1],1.23
same,"HSP90α Fold Change, LC-MRM",HSPs in 8226/LR5 cells; y3-y5 (Selected Transitions),1.23
same,"HSP90α Fold Change, LC-MRM",HSPs in 8226/LR5 cells; [2],1.23
same,"HSP90α expression increase, LC-MRM","HSPs in 8226/LR5 cells; 8226/LR5, 24 hours after treatment, same for y3-y6, y3-y5 or just y3",~1.2 fold

# From patent US20210100777A1, “HEAT SHOCK PROTEIN (HSP) INHIBITION AND MONITORING EFFECTIVENESS THEREOF” (H. LEE MOFFITT CANCER CENTER AND RESEARCH INSTITUTE, INC., priority 2013, published 2021)
